Assay: Lactam solubility in water or water+alcohol (48 hours agitation, filtration, HPLC quantification)
Format: physicochemical
Parameters: key to Solubility Increase vs water alone: fold increase in dissolved lactam relative to water alone
Protocol: Excess solid lactam (˜3 mg) was placed in a Whatman® Mini Uniprep sample vial, fitted with a 0.45 μm nylon filter. Water or water+alcohol (500 μL) was added the mixture shaken and tapped briefly to initially disperse the solid and the mixture then agitated for 48 hours using a plate shaker fitted with a vial holder (see image below). After 48 hours, the solid was removed from the system by pressing down the plunger with integral filter on the vial (see image below). This removes the solid and provides filtered solution within the inner chamber which is then ready for analysis.
The level of lactam dissolved in solution was quantified using HPLC analysis. Samples were analysed on an Agilent 1200® series HPLC fitted with a Thermo Hypersil® Gold C18 column (15×2.1×3 μm), isocratic elution with 60/40 methanol/water (+0.1% Formic Acid), 0.4 mL/min flow rate, using a DAD detector at 285 nm. 4-(4-chlorophenyl)-5-methylene-pyrrol-2-one has a retention time of ˜2.8 minutes.
The absolute level of lactam in solution is measured and reported as an increase in solubility of lactam relative to water alone.

C=C1NC(=O)C=C1c1ccc(Cl)cc1 [4-(4-chlorophenyl)-5-methylene-pyrrol-2-one]
Mean Lactam Level in Solution (EtOH 0% in water): 6.2 ppm | Solubility Increase vs water alone (EtOH 0% in water): 1.00 | Mean Lactam Level in Solution (EtOH 0.5% in water): 7.9 ppm | Solubility Increase vs water alone (EtOH 0.5% in water): 1.27 | Mean Lactam Level in Solution (EtOH 1% in water): 8.9 ppm | Solubility Increase vs water alone (EtOH 1% in water): 1.44 | Mean Lactam Level in Solution (EtOH 2% in water): 10.7 ppm | Solubility Increase vs water alone (EtOH 2% in water): 1.73 | Mean Lactam Level in Solution (EtOH 5% in water): 13.4 ppm | Solubility Increase vs water alone (EtOH 5% in water): 2.16 | Mean Lactam Level in Solution (EtOH 10% in water): 18.3 ppm | Solubility Increase vs water alone (EtOH 10% in water): 2.95 | Mean Lactam Level in Solution (EtOH 25% in water): 82.1 ppm | Solubility Increase vs water alone (EtOH 25% in water): 13.24 | Mean Lactam Level in Solution (EtOH 50% in water): 1800.2 ppm | Solubility Increase vs water alone (EtOH 50% in water): 290.35 | Mean Lactam Level in Solution (Glycerol 0% in water): 5.7 ppm | Solubility Increase vs water alone (Glycerol 0% in water): 1.00 | Mean Lactam Level in Solution (Glycerol 0.5% in water): 1.7 ppm | Solubility Increase vs water alone (Glycerol 0.5% in water): 0.29 | Mean Lactam Level in Solution (Glycerol 1% in water): 2.3 ppm | Solubility Increase vs water alone (Glycerol 1% in water): 0.41 | Mean Lactam Level in Solution (Glycerol 2% in water): 3.1 ppm | Solubility Increase vs water alone (Glycerol 2% in water): 0.54 | Mean Lactam Level in Solution (Glycerol 5% in water): 5.2 ppm | Solubility Increase vs water alone (Glycerol 5% in water): 0.91 | Mean Lactam Level in Solution (Glycerol 10% in water): 9.0 ppm | Solubility Increase vs water alone (Glycerol 10% in water): 1.59 | Mean Lactam Level in Solution (Glycerol 25% in water): 15.8 ppm | Solubility Increase vs water alone (Glycerol 25% in water): 2.77 | Mean Lactam Level in Solution (Glycerol 50% in water): 95.3 ppm | Solubility Increase vs water alone (Glycerol 50% in water): 16.72 | Mean Lactam Level in Solution (MeOH 0% in water): 6.2 ppm | Solubility Increase vs water alone (MeOH 0% in water): 1.00 | Mean Lactam Level in Solution (MeOH 0.5% in water): 7.5 ppm | Solubility Increase vs water alone (MeOH 0.5% in water): 1.20 | Mean Lactam Level in Solution (MeOH 1% in water): 9.0 ppm | Solubility Increase vs water alone (MeOH 1% in water): 1.45 | Mean Lactam Level in Solution (MeOH 2% in water): 8.2 ppm | Solubility Increase vs water alone (MeOH 2% in water): 1.32 | Mean Lactam Level in Solution (MeOH 5% in water): 10.4 ppm | Solubility Increase vs water alone (MeOH 5% in water): 1.67 | Mean Lactam Level in Solution (MeOH 10% in water): 15.7 ppm | Solubility Increase vs water alone (MeOH 10% in water): 2.52 | Mean Lactam Level in Solution (MeOH 25% in water): 48.8 ppm | Solubility Increase vs water alone (MeOH 25% in water): 7.87 | Mean Lactam Level in Solution (MeOH 50% in water): 315.6 ppm | Solubility Increase vs water alone (MeOH 50% in water): 50.90
